Test results taken from patent US9428478B2, “Piperazine derivatives, compositions, and uses related thereto” (Emory University, priority 2011, dated 2016).
pIC50: −log10 of the molar value. Converted amounts (≈) assume the structure as drawn.

Tests used:
xanthine oxidase = xanthine oxidase (Homo sapiens (Human), UniProt P47989); assay: Assay control: xanthine oxidase (XO) replaces Nox2 as the source of ROS, LO12 luminescence; type: biochemical; conditions: Table 2, xanthine oxidase control
Experimental: Assay controls. To rule out interference with either Nox2 or Nox4 luminescence assays, two approaches are used. In one, xanthine oxidase replaces the Nox2 enzymatic system as the source of ROS in the Nox2/LO12 assay. Xanthine is added to initiate the reaction and LO12 luminescence is recorded. In the other, exogenous H2O2 is supplied in place of the Nox4 expressing H2O2-generating cells and luminescence is recorded.

Nox2 [1] = target: T1, Nox2 (Homo sapiens (Human), UniProt P04839); assay: Nox2 activity assay for primary screening (cell free, human neutrophil plasma membranes, LO12 luminescence); type: biochemical
Experimental: Nox2 activity assay for primary screening: Plasma membranes were prepared from human neutrophils, which express large amounts of Nox2, stored at −80 C until use. See Curnutte et al., J. Biol. Chem. 1987, 262, 6450-6452, hereby incorporated by reference. Membranes are mixed with recombinant, purified cytosolic regulatory proteins (p67Np47N chimera, and a constitutively active mutant of Rac, Rac1(Q61)) and FAD, along with varying concentrations of compound, and LO12, which emits light when it reacts with ROS. The reaction is initiated by addition of NADPH and SDS (an artificial activator of Nox2).
Target sequence in this assay (P04839 2-570): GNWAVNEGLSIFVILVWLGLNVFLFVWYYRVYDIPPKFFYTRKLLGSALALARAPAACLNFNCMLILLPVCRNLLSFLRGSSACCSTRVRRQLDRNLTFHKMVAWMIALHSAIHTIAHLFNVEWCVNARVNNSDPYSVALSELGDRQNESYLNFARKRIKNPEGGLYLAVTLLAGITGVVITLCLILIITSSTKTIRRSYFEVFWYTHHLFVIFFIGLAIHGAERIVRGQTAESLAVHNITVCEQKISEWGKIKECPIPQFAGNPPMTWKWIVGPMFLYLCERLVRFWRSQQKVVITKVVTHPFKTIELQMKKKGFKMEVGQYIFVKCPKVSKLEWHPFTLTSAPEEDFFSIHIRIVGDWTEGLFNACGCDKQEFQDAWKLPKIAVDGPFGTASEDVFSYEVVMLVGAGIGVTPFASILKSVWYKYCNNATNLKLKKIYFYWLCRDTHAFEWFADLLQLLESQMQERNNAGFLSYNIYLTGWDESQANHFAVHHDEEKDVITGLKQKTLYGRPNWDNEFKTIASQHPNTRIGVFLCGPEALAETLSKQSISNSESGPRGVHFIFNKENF

[2] = Stability in liver S9-fractions, dog; type: in vitro ADME; conditions: read-out: Stability in liver S9-fractions (t ½) Dog (converted)
Solubility = type: physicochemical
[3] = Stability in liver S9-fractions, human; type: in vitro ADME; conditions: read-out: Stability in liver S9-fractions (t ½) Human (converted)
[4] = Stability in liver S9-fractions, mouse; type: in vitro ADME; conditions: read-out: Stability in liver S9-fractions (t ½) Mouse (converted)
Nox1 = Nox1 (Homo sapiens (Human), UniProt Q9Y5S8); assay: Nox1 inhibition; type: biochemical; conditions: Table 3
Nox2 [5] = target: T1, Nox2; assay: Nox2 assay in human neutrophils (PMN), LO12 luminescence; type: cell-based; conditions: Table 3, human neutrophils; read-out: Nox2 (PMN)
Experimental: Nox2 assay in human neutrophils: Human neutrophils were obtained from healthy volunteers (REF). LO12 luminescence was quantified as above. Nox4 assay using stably transfected HEK cell: HEK cells stably transfected with human Nox4 were incubated with varying concentrations of compound along with LO12.
Target sequence in this assay (P04839 whole entry, looked up): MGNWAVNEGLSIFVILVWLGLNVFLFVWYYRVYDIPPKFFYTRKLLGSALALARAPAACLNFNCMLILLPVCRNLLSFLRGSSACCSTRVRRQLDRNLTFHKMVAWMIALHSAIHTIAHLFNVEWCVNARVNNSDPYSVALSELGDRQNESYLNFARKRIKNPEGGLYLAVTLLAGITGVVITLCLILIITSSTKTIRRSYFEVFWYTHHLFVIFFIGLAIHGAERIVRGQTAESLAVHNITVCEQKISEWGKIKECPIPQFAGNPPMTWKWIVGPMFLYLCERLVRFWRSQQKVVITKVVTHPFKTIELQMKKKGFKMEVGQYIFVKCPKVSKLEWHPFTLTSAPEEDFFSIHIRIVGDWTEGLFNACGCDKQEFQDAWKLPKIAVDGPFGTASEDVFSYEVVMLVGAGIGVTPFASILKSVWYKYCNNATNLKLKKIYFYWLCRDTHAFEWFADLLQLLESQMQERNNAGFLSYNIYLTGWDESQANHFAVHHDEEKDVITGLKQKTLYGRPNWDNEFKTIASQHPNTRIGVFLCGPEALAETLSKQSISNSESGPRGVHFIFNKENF
Target sequence in this assay (P13498 whole entry partner, looked up): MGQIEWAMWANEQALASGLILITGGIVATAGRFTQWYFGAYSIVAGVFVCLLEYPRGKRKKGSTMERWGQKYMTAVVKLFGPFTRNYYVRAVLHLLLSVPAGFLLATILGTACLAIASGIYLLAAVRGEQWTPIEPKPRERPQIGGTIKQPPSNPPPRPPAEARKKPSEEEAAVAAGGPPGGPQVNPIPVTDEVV

Nox5 = Nox5 (Homo sapiens (Human), UniProt Q96PH1); assay: Nox5 inhibition; type: biochemical; conditions: Table 3
[6] = Table 3, read-out: Nox2 (Cell Free)

Nox5, sequence (Q96PH1 whole entry, species assumed): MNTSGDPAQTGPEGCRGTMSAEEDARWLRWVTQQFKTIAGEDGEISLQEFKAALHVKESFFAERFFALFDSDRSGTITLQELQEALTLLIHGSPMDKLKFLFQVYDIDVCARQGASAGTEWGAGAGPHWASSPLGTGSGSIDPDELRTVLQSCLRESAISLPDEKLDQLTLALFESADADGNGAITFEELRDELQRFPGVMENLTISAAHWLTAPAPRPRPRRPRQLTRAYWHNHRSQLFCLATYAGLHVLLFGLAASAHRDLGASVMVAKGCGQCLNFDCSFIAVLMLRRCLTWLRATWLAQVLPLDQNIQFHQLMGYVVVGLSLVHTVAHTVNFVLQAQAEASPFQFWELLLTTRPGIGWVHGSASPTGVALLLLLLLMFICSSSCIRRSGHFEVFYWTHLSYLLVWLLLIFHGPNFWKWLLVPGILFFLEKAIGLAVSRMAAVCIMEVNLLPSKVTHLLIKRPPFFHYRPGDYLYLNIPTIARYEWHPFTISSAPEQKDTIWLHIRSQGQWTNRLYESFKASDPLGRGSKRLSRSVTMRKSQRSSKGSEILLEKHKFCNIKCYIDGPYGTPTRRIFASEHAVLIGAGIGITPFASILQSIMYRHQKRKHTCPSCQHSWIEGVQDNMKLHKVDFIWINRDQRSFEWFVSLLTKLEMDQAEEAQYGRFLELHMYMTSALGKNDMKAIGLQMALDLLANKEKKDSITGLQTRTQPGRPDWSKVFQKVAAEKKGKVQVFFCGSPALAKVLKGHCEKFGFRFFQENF
Nox1, sequence (Q9Y5S8 whole entry, species assumed): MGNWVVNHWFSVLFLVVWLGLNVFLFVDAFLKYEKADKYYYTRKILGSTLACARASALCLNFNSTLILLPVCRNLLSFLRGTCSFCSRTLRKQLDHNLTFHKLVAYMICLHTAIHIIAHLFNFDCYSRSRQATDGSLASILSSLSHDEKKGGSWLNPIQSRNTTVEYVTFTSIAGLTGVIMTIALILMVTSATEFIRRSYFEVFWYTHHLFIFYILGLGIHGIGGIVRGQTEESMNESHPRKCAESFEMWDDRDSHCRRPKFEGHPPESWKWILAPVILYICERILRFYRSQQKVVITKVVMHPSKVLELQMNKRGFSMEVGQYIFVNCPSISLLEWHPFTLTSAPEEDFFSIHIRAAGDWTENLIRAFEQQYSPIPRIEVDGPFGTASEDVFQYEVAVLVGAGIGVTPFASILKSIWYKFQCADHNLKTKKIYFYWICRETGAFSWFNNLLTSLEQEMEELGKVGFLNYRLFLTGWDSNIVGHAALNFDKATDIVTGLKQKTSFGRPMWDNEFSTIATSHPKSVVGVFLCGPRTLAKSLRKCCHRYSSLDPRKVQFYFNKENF
Nox1, sequence (P13498 2-195 partner, species assumed): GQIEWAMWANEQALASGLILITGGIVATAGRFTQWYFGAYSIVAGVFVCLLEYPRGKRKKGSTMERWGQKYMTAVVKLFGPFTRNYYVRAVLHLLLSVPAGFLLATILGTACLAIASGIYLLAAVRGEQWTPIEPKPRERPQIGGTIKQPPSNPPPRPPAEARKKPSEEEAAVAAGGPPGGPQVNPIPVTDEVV
xanthine oxidase, sequence (P47989 whole entry, species assumed): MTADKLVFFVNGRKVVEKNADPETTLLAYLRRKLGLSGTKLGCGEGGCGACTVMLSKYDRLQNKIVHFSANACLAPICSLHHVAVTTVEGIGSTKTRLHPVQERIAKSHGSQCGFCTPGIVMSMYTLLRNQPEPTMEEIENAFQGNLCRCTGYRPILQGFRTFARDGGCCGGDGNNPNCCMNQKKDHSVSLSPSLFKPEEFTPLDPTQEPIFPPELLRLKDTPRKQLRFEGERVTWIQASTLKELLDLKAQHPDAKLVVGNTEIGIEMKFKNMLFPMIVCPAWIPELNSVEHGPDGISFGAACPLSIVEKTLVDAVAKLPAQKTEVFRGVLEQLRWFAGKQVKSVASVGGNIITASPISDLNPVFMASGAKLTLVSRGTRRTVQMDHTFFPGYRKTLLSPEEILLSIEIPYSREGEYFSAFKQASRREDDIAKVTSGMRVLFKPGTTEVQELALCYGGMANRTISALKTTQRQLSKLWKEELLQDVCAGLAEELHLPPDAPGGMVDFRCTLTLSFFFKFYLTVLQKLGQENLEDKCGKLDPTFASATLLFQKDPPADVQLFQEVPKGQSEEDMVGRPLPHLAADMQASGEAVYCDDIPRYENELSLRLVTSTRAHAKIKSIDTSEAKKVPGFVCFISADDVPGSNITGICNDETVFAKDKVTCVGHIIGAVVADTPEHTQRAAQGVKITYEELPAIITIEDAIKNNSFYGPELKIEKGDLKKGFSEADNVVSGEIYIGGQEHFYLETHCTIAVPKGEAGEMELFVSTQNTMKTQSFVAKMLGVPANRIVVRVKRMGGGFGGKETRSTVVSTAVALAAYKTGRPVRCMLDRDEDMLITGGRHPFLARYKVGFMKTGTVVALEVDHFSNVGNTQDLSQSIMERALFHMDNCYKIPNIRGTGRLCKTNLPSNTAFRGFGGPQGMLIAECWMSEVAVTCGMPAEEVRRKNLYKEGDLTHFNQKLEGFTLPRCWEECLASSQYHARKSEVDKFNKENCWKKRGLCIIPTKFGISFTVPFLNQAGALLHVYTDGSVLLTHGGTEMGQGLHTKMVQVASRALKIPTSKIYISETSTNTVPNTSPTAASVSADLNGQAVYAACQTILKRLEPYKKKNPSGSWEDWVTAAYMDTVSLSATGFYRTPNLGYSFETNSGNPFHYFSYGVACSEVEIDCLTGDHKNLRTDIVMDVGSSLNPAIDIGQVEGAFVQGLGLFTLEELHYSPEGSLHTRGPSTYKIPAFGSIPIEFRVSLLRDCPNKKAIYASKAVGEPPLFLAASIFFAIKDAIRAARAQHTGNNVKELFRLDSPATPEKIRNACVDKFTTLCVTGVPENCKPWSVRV

SMILES	pIC50 (xanthine oxidase)	pIC50 (Nox2 [1]; Table 2, read-out: IC50 Nox2)	solubility (Solubility) [µM]	pIC50 (Nox2 [1]; [6])	pIC50 (Nox1)	pIC50 (Nox2 [5])	other results
COc1ccc(N2CCN(C(=O)c3cc4cc(C(C)=O)ccc4[nH]3)CC2)cc1F [TG6-252]	–	5.52	–	–	–	–	–
COc1ccc(N2CCN(C(=O)c3cc4cc(C(N)=O)ccc4[nH]3)CC2)cc1F [TG6-254-1]	–	5.70	–	–	–	–	–
CNC(=O)c1ccc2[nH]c(C(=O)N3CCN(c4ccc(OC)c(F)c4)CC3)cc2c1 [TG6-254-2]	–	5.00	–	–	–	–	–
CCN(CC)CCNCc1c(C(=O)N2CCN(c3ccc(OC)cc3)CC2)[nH]c2ccc(F)cc12 [TG6-298, (3-(((2-(diethylamino)ethyl)amino)methyl)-5-fluoro-1H-indol-2-yl)(4-(4-methoxyphenyl)piperazin-1-yl)methanone]	–	–	150 (≈ 72.2 µg/mL)	6.52	6.05	6.70	–
COc1ccc(N2CCN(C(=O)c3[nH]c4ccc(F)cc4c3CN3CCOCC3)CC2)cc1.Cl [TG7-31, (5-fluoro-3-(morpholinomethyl)-1H-indol-2-yl)(4-(4-methoxyphenyl)piperazin-1-yl)methanone]	–	–	276	6.10	6.22	6.70	pIC50 (Nox5): 5.82
COc1ccc(N2CCN(C(=O)c3[nH]c4ccc(F)cc4c3CNC3CCN(C)CC3)CC2)cc1 [TG7-32, (5-fluoro-3-(((1-methylpiperidin-4-yl)amino)methyl)-1H-indol-2-yl)(4-(4-methoxyphenyl)piperazin-1-yl)methanone]	–	–	250 (≈ 120 µg/mL)	6.15	6.30	6.70	pIC50 (Nox5): 6.22
CCN1CCN(Cc2c(C(=O)N3CCN(c4ccc(OC)cc4)CC3)[nH]c3ccc(F)cc23)CC1 [TG7-33, (3-((4-ethylpiperazin-1-yl)methyl)-5-fluoro-1H-indol-2-yl)(4-(4-methoxyphenyl)piperazin-1-yl)methanone]	–	–	250 (≈ 120 µg/mL)	6.10	6.40	6.15	pIC50 (Nox5): 6.10
CCN(CC)Cc1c(C(=O)N2CCN(c3ccc(OC)cc3)CC2)[nH]c2ccc(F)cc12.Cl [TG7-34, (3-((diethylamino)methyl)-5-fluoro-1H-indol-2-yl)(4-(4-methoxyphenyl)piperazin-1-yl)methanone]	–	–	270	6.15	6.22	6.30	pIC50 (Nox5): 6.22

Continued, in another order:

pIC50 (xanthine oxidase)	pIC50 (Nox2 [1]; Table 2, read-out: IC50 Nox2)	solubility (Solubility) [µM]	pIC50 (Nox2 [1]; [6])	pIC50 (Nox1)	pIC50 (Nox2 [5])	SMILES	other results
< 4.70	6.30	–	–	–	–	CNC(=O)c1ccc2[nH]c(C(=O)N3CCN(c4ccc(OC)cc4)CC3)cc2c1 [TG6-223]	–
< 4.70	6.30	< 25	6.40	6.30	6.70	COc1ccc(N2CCN(C(=O)c3cc4ccccc4[nH]3)CC2)cc1 [TG6-225]	half-life [2]: 2.5 h; half-life [3]: 4.2 h; half-life [4]: 5 h
< 4.70	6.15	190 (≈ 71.9 µg/mL)	6.22	6.52	7.00	COc1ccc(N2CCN(C(=O)c3cc4cc(C(N)=O)ccc4[nH]3)CC2)cc1 [TG6-227]	half-life [2]: 4.5 h; half-life [3]: 2 h; half-life [4]: 6 h
< 4.70	6.00	–	–	–	–	COc1ccc(N2CCN(C(=O)c3nc4cc(OC)ccc4[nH]3)CC2)cc1 [TG6-228]	–
< 4.70	6.00	–	–	–	–	COC(=O)C1CN(c2ccc(OC)cc2)CCN1C(=O)c1nc2cc(F)ccc2[nH]1 (stereo not shown) [TG6-235]	–
< 4.70	6.30	–	–	–	–	COc1ccc(N2CCN(C(=O)c3cc4cc(C(=O)O)ccc4[nH]3)CC2)cc1 [TG6-236]	–
≤ 4.70	6.10	–	–	–	–	CCOc1ccc(N2CCN(C(=O)c3cc4cc(C(C)=O)ccc4[nH]3)CC2)cc1 [TG6-238]	–
≤ 4.70	6.00	–	–	–	–	COc1ccc(N2CCN(C(=O)c3cnc4cc(C(C)=O)ccc4c3O)CC2)cc1 [TG6-239]	–
–	6.10	–	–	–	–	CCOc1ccc(N2CCN(C(=O)c3nc4cc(F)ccc4[nH]3)CC2)cc1 [TG6-242]	–
≤ 4.70	6.00	–	–	–	–	CC(C)Oc1ccc(N2CCN(C(=O)c3nc4cc(C(N)=O)ccc4[nH]3)CC2)cc1 [TG6-251-1]	–
–	6.00	–	–	–	–	CC(=O)c1ccc2[nH]c(C(=O)N3CCN(c4ccc(OC(C)C)cc4)CC3)cc2c1 [TG6-251-2]	–
